Assays:
Type in all cases: biochemical
[1] = target: T1, purified human Factor XIa (Homo sapiens, UniProt P03951); assay: Factor XIa enzyme inhibition assay (chromogenic substrate S-2366), Ki; settings: substrate S-2366, pH 7.4
T1 construct: purchased Haematologic Technologies
Outline: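 Purified human Factor XIa ([…] final) with chromogenic substrate S-2366 (0.0002-0.001 M) in 50 mM HEPES pH 7.4, 145 mM NaCl, 5 mM KCl, 0.1% PEG 8000. Velocities measured over 20-180 minutes with and without inhibitor; Ki derived assuming competitive inhibition, e.g. Ki=IC50/(1+S/Km).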

[2] = system: citrated normal human plasma; assay: Activated Partial Thromboplastin Time (aPTT) plasma clotting assay; settings: inhibitor concentration required to increase the clotting time by 1.5 times
Text: The effectiveness of compounds of the present invention as inhibitors of coagulation can be determined using a standard or modified clotting assay. An increase in the plasma clotting time in the presence of inhibitor is indicative of anticoagulation. Relative clotting time is the clotting time in the presence of an inhibitor divided by the clotting time in the absence of an inhibitor. The results of this assay may be expressed as IC1.5× or IC2×, the inhibitor concentration required to increase the clotting time by 1.5 times or 2 times, respectively, relative to the clotting time in the absence of the inhibitor. The IC1.5× or IC2× is found by linear interpolation from relative clotting time versus inhibitor concentration plots using inhibitor concentrations that span the IC1.5× or IC2×.
Clotting times are determined using citrated normal human plasma as well as plasma obtained from a number of laboratory animal species (e.g., rat, or rabbit). A compound is diluted into plasma beginning with a 10 mM DMSO stock solution. The final concentration of DMSO is less than 2%. Plasma clotting assays are performed in an automated coagulation analyzer (Sysmex, Dade-Behring, Illinois). Similarly, clotting times can be determined from laboratory animal species or humans dosed with compounds of the invention.
Activated Partial Thromboplastin Time (aPTT) is determined using ACTIN® FSL (Dade-Behring, Illinois) following the directions in the package insert. Plasma (0.05 mL) is warmed to 37° C. for 1 minute. ACTIN® FSL (0.05 mL) is added to the plasma and incubated for an additional 2 to 5 minutes. Calcium chloride (25 mM, 0.05 mL) is added to the reaction to initiate coagulation. The clotting time is the time in seconds from the moment calcium chloride is added until a clot is detected.

[3] = target: T2, purified human plasma kallikrein (Homo sapiens, UniProt P03952); assay: Plasma kallikrein enzyme inhibition assay (chromogenic substrate S-2302), Ki; settings: substrate S-2302, pH 7.5
T2 construct: purchased Enzyme Research Laboratories
T2 sequence (P03952 391-638 limits assumed): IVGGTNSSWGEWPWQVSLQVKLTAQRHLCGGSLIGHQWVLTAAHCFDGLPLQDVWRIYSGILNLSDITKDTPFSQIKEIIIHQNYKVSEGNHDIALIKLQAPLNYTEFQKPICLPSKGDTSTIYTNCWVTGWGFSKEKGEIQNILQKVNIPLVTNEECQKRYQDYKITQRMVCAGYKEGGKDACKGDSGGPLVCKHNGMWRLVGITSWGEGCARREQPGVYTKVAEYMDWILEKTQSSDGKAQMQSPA
T2 sequence (P03952 20-390 partner limits assumed): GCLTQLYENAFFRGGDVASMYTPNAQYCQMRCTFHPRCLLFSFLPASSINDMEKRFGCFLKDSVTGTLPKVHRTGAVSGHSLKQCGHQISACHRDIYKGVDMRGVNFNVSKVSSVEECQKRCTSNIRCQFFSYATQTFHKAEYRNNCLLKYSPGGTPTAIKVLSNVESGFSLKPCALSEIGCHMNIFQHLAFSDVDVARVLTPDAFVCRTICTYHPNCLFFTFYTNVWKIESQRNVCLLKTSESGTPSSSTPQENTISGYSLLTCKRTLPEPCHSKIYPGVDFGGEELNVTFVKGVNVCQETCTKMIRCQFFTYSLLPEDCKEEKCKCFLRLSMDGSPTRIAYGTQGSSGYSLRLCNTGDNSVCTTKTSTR
Procedure: The effectiveness of compounds of the present invention as inhibitors of the coagulation Factors XIa, VIIa, IXa, Xa, XIIa, plasma kallikrein, thrombin, chemytrypsin or trypsin can be determined using a relevant purified serine protease, respectively, and an appropriate synthetic substrate. The rate of hydrolysis of the chromogenic or fluorogenic substrate by the relevant serine protease was measured both in the absence and presence of compounds of the present invention. […] A decrease in the rate of absorbance or fluorescence change in the presence of inhibitor is indicative of enzyme inhibition. Such methods are known to one skilled in the art. The results of this assay are expressed as the inhibitory constant, Ki.
Plasma kallikrein determinations were made in 0.1 M sodium phosphate buffer at a pH of 7.5 containing 0.1-0.2 M sodium chloride and 0.5% PEG 8000. Determinations were made using purified human plasma kallikrein (Enzyme Research Laboratories) at a final assay concentration of […] and the synthetic substrate S-2302 (H-(D)-Pro-Phe-Arg-pNA; CHROMOGENIX®) at a concentration of 0.00008-0.0004 M.
Values of Ki were determined by allowing the protease to react with the substrate in the presence of the inhibitor. Reactions were allowed to go for periods of 20-180 minutes (depending on the protease) and the velocities (rate of absorbance or fluorescence change versus time) were measured. The following relationships were used to calculate Ki values: (Vmax*S)/(Km+S) (vo−vs)/vs=I/(Ki*(1+S/Km)) for a competitive inhibitor with one binding site; or vs/vo=A+(B−A)/(1+(IC50/(I)^n)); and Ki=IC50/(1+S/Km) for a competitive inhibitor where: […]

T1 sequence (P03951 388-625 limits assumed): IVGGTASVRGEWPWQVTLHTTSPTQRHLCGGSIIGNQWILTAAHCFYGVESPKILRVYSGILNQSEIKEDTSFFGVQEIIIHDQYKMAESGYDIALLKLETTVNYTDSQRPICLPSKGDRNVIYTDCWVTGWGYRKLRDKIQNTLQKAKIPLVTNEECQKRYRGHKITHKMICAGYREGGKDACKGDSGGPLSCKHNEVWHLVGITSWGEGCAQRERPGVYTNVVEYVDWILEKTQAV
T1 sequence (P03951 19-387 partner limits assumed): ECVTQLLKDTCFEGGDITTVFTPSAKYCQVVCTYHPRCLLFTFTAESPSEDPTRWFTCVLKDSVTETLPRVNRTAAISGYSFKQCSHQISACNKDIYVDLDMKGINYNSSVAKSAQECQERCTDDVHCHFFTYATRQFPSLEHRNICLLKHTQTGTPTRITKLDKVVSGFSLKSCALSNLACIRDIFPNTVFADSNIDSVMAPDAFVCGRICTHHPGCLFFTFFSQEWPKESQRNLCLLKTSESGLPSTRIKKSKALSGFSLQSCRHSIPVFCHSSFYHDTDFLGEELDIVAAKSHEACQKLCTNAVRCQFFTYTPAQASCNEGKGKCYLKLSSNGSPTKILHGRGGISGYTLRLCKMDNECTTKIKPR

Cc1c(CC(C(=O)Nc2ccc(C(=O)O)cc2)N2CCC(c3c(F)ccc(Cl)c3F)=CC2=O)ccc2cn[nH]c12 (stereo not drawn) [Example 135, 4-(2-(4-(3-chloro-2,6-difluorophenyl)-6-oxo-3,6-dihydropyridin-1(2H)-yl)-3-(7-methyl-1H-indazol-6-yl)propanamido)benzoic Acid]
Ki [1]: 199 nM
aPTT (IC1.5×) [2]: 1.74 µM
Ki [3]: 1870 nM
